Test results from article PMC9332707, “Bio-Guided Isolation of SARS-CoV-2 Main Protease Inhibitors from Medicinal Plants: In Vitro Assay and Molecular Dynamics” (Plants, 2022).
≈ marks a conversion by molar mass, not a printed value. Like-named read-outs stand apart in the source and are kept apart here.

How the values were obtained:
[1] = cited from earlier work
SARS-CoV-2 infection = system: SARS-CoV-2 infection; design: method as in PMID 33203926; conditions: read-out: IC50 against SARS-CoV-2 infection; cited from earlier work
MTT cytotoxicity assay = conditions: African green monkey
[2] = system: SARS-CoV-2 (hCoV-19/Egypt/NRC-03/2020); test: microbe, parasite or virus in culture; type: cell-based; conditions: for selectivity index CC50/IC50: CC50 (VERO-E6) / antiviral IC50
[3] = design: method as in PMID 33203926; conditions: cited from earlier work
SARS-CoV-2 M^PRO = SARS-CoV-2 M^PRO (Severe acute respiratory syndrome coronavirus 2, UniProt P0DTD1); test: biochemical; type: biochemical
in vitro = conditions: African green monkey
M^PRO = conditions: read-out: reported bioassay IC50 (M^PRO); reported for the co-crystallized inhibitors (PDB 7CBT, 6W63); ref not given; cited from earlier work
[4] = design: method as in PMID 24924310; conditions: cited from earlier work
[5] = design: method as in earlier work; conditions: dose of 5 mg/day to 2600 mg/day, without any toxic symptoms; cited from earlier work
[6] = Severe acute respiratory syndrome coronavirus 2, Vero C1008, read-out: IC50 antiviral activity against SARS-CoV-2
[7] = Severe acute respiratory syndrome coronavirus 2, Vero C1008, hCoV-19/Egypt/NRC-03/2020 on Vero-E6 cells, read-out: IC50 antiviral activity against SARS-CoV-2
[8] = relative to GC376 standard inhibitor, read-out: IC50 on SARS-CoV-2 viral main protease

## CCCCC[C@H](O)CC(=O)CCc1ccc(O)c(OC)c1 [6-Gingerol]
[1]; detected in blood as glucuronide and sulfate conjugates
  absorption after oral administration: well-absorbed
[1]; doses up to 2.0 g daily, only mild gastrointestinal complaints
  toxicity / tolerability in humans: low levels of toxicity and high levels of tolerability
SARS-CoV-2 infection
  IC50: > 100 µM
MTT cytotoxicity assay
  CC50: 101 µg/mL (≈ 344 µM)
[2]
  selectivity index CC50/IC50: 2.3
[2]; [6]
  IC50: 43.5 µg/mL (≈ 148 µM)
[3]
  CC50: > 100 µM
SARS-CoV-2 M^PRO
  % Inhibition of SARS-CoV-2 M^PRO by isolated compounds: 65.2%
  IC50: 9.33 µM

## CCCCCCCC(=O)CCc1ccc(O)c(OC)c1 [6-Paradol]
[2]
  selectivity index CC50/IC50: 0.6
[2]; [7]
  IC50: 281 µg/mL (≈ 1010 µM)
In vitro
  CC50: 155 µg/mL (≈ 557 µM)
SARS-CoV-2 M^PRO; FRET assay, isolated compounds
  % Inhibition of SARS-CoV-2 M^PRO by isolated compounds: 71.8%
SARS-CoV-2 M^PRO; [8]
  IC50: 0.168 µM

## CC(C)C[C@H](NC(=O)OCc1ccccc1)C(=O)N[C@@H](CC1CCNC1=O)C(O)S(=O)(=O)O (stereo partly drawn) [GC376]
M^PRO
  IC50: 0.026 µM

## COc1cc(-c2cc(=O)c3c(O)c(OC)c(OC)c(OC)c3o2)cc(OC)c1OC [Gardenin A]
[2]
  selectivity index CC50/IC50: 2.9
[2]; [7]
  IC50: 83.8 µg/mL (≈ 200 µM)
In vitro
  CC50: 246 µg/mL (≈ 589 µM)
SARS-CoV-2 M^PRO
  % Inhibition of SARS-CoV-2 M^PRO by isolated compounds: 73.80%
SARS-CoV-2 M^PRO; [8]
  IC50: 5.96 µM

## COc1ccc(-c2cc(=O)c3c(O)c(OC)c(OC)c(OC)c3o2)cc1 [Gardenin B]
SARS-CoV-2 M^PRO
  % Inhibition of SARS-CoV-2 M^PRO by isolated compounds: 1.00%

## CC1=CC(=O)C(C(C)C)=CC1=O [Thymoquinone]
[4]; after oral and IV administration
  elimination: rapid-elimination properties
[4]; oral
  absorption following oral administration: relatively slower absorption
MTT cytotoxicity assay; VERO-E6 cells
  CC50: 8.2 µg/mL (≈ 49.9 µM)
[2]
  selectivity index CC50/IC50: 1.33
[2]; [6]
  IC50: 6.14 µg/mL (≈ 37.4 µM)
[5]
  clinical safety: safe
SARS-CoV-2 M^PRO; FRET assay, isolated compounds
  % Inhibition of SARS-CoV-2 M^PRO by isolated compounds: 63.21%
SARS-CoV-2 M^PRO; [8]
  IC50: 10.3 µM

## CC(C)(C)c1ccc(N(C(=O)c2cnc[nH]2)[C@@H](C(=O)NC2CCCCC2)c2cccnc2)cc1 [X77]
M^PRO
  IC50: 2.3 µM
